# Where two headings read alike, the source gives them in different places.
# Columns and labels:
# [1] = test system: patients with chronic GVHD; conditions: for Abdominal pain / Arthralgia / Cough / Decreased appetite / Diarrhea / Dysphagia / Dyspnea / Edema / Headache / Hemorrhage / Hypertension / Infection (pathogen not specified) / Muscle spasm / Musculoskeletal pain / Nasal congestion / Pruritus / Pyrexia / Rash / Viral infection / Asthenia / Nausea: 200 mg once daily (N = 83); for Asthenia: includes fatigue, malaise; for Nausea: includes nausea, vomiting
# [2] = biological target: CYP3A4 (Homo sapiens, UniProt P08684); assay: metabolism in vitro; type: in vitro ADME
# Sequence of CYP3A4 (P08684 whole entry): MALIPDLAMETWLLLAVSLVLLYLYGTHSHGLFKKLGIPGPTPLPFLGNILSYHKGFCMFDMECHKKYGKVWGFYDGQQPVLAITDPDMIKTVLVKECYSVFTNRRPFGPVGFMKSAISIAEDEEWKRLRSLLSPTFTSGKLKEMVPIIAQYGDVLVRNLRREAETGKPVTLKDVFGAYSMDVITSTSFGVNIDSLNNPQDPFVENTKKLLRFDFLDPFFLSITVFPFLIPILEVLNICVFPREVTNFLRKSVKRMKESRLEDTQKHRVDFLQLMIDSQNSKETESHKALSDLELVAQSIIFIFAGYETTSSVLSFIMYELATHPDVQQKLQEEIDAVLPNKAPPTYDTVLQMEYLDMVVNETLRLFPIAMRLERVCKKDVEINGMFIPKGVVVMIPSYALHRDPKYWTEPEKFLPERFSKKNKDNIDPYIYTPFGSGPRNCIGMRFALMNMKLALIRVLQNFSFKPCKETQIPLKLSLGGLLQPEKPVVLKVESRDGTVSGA
# [3] = test system: cGVHD symptom burden; assay: Example 2: 7-day LSS summary score; type: in vivo, human; conditions: for Clinically significant improvement from baseline (LSS), Overall: decrease ≥ 7 points in LSS score
# Experimental: All responses were assessed by the study site investigators.
# [4] = biological target: T1, UGT1A9 (Homo sapiens, UniProt O60656); assay: metabolism in vitro; type: in vitro ADME
# T1 sequence (O60656 26-530): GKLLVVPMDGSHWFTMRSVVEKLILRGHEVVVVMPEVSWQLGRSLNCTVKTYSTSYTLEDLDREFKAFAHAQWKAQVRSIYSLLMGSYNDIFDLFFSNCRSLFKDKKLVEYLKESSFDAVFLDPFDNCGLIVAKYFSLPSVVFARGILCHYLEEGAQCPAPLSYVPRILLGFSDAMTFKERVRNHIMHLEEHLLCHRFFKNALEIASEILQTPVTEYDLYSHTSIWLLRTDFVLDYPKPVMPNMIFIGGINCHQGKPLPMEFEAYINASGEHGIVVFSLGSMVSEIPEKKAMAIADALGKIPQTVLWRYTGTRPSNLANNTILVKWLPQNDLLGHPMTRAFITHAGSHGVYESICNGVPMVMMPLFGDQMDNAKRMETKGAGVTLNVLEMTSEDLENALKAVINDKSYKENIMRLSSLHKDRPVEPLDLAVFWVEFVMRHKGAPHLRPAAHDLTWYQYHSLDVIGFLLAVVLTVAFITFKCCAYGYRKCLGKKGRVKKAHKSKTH
# [5] = biological target: CYP2D6 (Homo sapiens, UniProt P10635); assay: metabolism in vitro; type: in vitro ADME
# Sequence of CYP2D6 (P10635 whole entry): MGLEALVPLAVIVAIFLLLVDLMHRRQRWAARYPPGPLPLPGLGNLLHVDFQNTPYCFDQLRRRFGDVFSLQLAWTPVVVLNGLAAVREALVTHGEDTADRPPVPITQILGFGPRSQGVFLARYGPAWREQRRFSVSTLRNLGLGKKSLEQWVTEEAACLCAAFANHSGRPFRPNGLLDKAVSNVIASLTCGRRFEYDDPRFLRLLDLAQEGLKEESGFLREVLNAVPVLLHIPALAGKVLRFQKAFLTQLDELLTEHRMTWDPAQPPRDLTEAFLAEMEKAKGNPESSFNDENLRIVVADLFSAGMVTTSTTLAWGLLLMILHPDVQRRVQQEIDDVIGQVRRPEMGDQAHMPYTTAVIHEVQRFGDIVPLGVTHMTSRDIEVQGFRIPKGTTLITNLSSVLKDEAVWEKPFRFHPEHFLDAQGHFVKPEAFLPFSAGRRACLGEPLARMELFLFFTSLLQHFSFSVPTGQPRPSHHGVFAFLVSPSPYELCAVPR
# [6] = Grade 2-4 Max Post, 200 mg once daily
# [7] = Grade 3-4 Max Post, 200 mg once daily
compound,measurement,setting,value
"CC(C)NC(=O)COc1cccc(-c2nc(Nc3ccc4[nH]ncc4c3)c3ccccc3n2)c1 [Belumosudil, 2-{3-[4-(1H-indazol-5-ylamino)-2-quinazolinyl]phenoxy}-N-(propan-2-yl) acetamide]",adverse reactions leading to dose interruption,"[1]; 200 mg once daily, N=83",29%
same,"dose interruption due to asthenia, dyspnea, hemorrhage, hypotension, liver function test abnormal, nausea, pyrexia, edema, renal failure (each)","[1]; 200 mg once daily, N=83",2%
same,dose interruption due to diarrhea,"[1]; 200 mg once daily, N=83",4%
same,dose interruption due to infections,"[1]; 200 mg once daily, N=83",11%
same,patients with fatal adverse reaction,"[1]; 200 mg once daily, N=83",one
same,permanent discontinuation due to adverse reactions,"[1]; 200 mg once daily, N=83",18%
same,permanent discontinuation due to nausea,"[1]; 200 mg once daily, N=83",4%
same,Abdominal pain,[1]; All Grades,22%
same,Arthralgia,[1]; All Grades,15%
same,Cough,[1]; All Grades,30%
same,Decreased appetite,[1]; All Grades,17%
same,Diarrhea,[1]; All Grades,35%
same,Dysphagia,[1]; All Grades,16%
same,Dyspnea,[1]; All Grades,33%
same,Edema,[1]; All Grades,27%
same,Headache,[1]; All Grades,21%
same,Hemorrhage,[1]; All Grades,23%
same,Hypertension,[1]; All Grades,21%
same,Infection (pathogen not specified),[1]; All Grades,53%
same,Muscle spasm,[1]; All Grades,17%
same,Musculoskeletal pain,[1]; All Grades,22%
same,Nasal congestion,[1]; All Grades,12%
same,Pruritus,[1]; All Grades,11%
same,Pyrexia,[1]; All Grades,18%
same,Rash,[1]; All Grades,12%
same,Viral infection,[1]; All Grades,19%
same,Asthenia,[1]; All Grades,46%
same,Nausea,[1]; All Grades,42%
same,Alanine Aminotransferase Increased,[1]; [6],7%
same,Alkaline Phosphatase Increased,[1]; [6],9%
same,Calcium Decreased,[1]; [6],12%
same,Creatinine Increased,[1]; [6],4%
same,Gamma Glutamyl Transferase Increased,[1]; [6],21%
same,Hemoglobin Decreased,[1]; [6],11%
same,Lymphocytes Decreased,[1]; [6],29%
same,Neutrophil Count Decreased,[1]; [6],8%
same,Phosphate Decreased,[1]; [6],28%
same,Platelets Decreased,[1]; [6],10%
same,Potassium Increased,[1]; [6],7%
same,Alanine Aminotransferase Increased,[1]; [7],2%
same,Alkaline Phosphatase Increased,[1]; [7],0%
same,Calcium Decreased,[1]; [7],1%
same,Creatinine Increased,[1]; [7],0%
same,Gamma Glutamyl Transferase Increased,[1]; [7],11%
same,Hemoglobin Decreased,[1]; [7],1%
same,Lymphocytes Decreased,[1]; [7],13%
same,Neutrophil Count Decreased,[1]; [7],4%
same,Phosphate Decreased,[1]; [7],7%
same,Platelets Decreased,[1]; [7],5%
same,Potassium Increased,[1]; [7],1%
same,Abdominal pain,[1]; Grades 3-4,1%
same,Arthralgia,[1]; Grades 3-4,2%
same,Cough,[1]; Grades 3-4,0%
same,Decreased appetite,[1]; Grades 3-4,1%
same,Diarrhea,[1]; Grades 3-4,5%
same,Dysphagia,[1]; Grades 3-4,0%
same,Dyspnea,[1]; Grades 3-4,5%
same,Edema,[1]; Grades 3-4,1%
same,Headache,[1]; Grades 3-4,0%
same,Hemorrhage,[1]; Grades 3-4,5%
same,Hypertension,[1]; Grades 3-4,7%
same,Infection (pathogen not specified),[1]; Grades 3-4,16%
same,Muscle spasm,[1]; Grades 3-4,0%
same,Musculoskeletal pain,[1]; Grades 3-4,4%
same,Nasal congestion,[1]; Grades 3-4,0%
same,Pruritus,[1]; Grades 3-4,0%
same,Pyrexia,[1]; Grades 3-4,1%
same,Rash,[1]; Grades 3-4,0%
same,Viral infection,[1]; Grades 3-4,4%
same,Asthenia,[1]; Grades 3-4,4%
same,Nausea,[1]; Grades 3-4,4%
same,metabolism by CYP3A4,[2],primarily metabolized
same,"clinically meaningful LSS improvement, nonresponders",[3]; 200 mg daily,29%
same,"clinically meaningful LSS improvement, responders",[3]; 200 mg daily,69%
same,"clinically meaningful improvement (≥7-point) in 7-day LSS summary score, mITT",[3]; 200 mg daily,59%
same,"clinically meaningful LSS improvement, nonresponders",[3]; 200 mg twice daily,33%
same,"clinically meaningful LSS improvement, responders",[3]; 200 mg twice daily,71%
same,"clinically meaningful improvement (≥7-point) in 7-day LSS summary score, mITT",[3]; 200 mg twice daily,62%
same,"Clinically significant improvement from baseline (LSS), Overall",[3]; 200 mg daily (n = 66),39 (59) n (%)
same,"Clinically significant improvement from baseline (LSS), Overall",[3]; 200 mg twice daily (n = 66),41 (62) n (%)
same,"Clinically significant improvement from baseline (LSS), Overall",[3]; Total (N = 132),80 (61) n (%)
same,metabolism by UGT1A9,[4],to a lesser extent
same,metabolism by CYP2D6,[5],to a lesser extent
